Tests used:
[1] = target: human HexB (Homo sapiens, UniProt P07686); test: inhibition kinetics with pNP-GlcNAc substrate, Lineweaver-Burk; format: biochemical
[2] = target: T1, human OGA (O-GlcNAcase) (Homo sapiens, UniProt O60502); test: continuous UV/Vis assay with pNP-GlcNAc substrate, recombinant enzyme; format: biochemical
T1 sequence (O60502 1-916): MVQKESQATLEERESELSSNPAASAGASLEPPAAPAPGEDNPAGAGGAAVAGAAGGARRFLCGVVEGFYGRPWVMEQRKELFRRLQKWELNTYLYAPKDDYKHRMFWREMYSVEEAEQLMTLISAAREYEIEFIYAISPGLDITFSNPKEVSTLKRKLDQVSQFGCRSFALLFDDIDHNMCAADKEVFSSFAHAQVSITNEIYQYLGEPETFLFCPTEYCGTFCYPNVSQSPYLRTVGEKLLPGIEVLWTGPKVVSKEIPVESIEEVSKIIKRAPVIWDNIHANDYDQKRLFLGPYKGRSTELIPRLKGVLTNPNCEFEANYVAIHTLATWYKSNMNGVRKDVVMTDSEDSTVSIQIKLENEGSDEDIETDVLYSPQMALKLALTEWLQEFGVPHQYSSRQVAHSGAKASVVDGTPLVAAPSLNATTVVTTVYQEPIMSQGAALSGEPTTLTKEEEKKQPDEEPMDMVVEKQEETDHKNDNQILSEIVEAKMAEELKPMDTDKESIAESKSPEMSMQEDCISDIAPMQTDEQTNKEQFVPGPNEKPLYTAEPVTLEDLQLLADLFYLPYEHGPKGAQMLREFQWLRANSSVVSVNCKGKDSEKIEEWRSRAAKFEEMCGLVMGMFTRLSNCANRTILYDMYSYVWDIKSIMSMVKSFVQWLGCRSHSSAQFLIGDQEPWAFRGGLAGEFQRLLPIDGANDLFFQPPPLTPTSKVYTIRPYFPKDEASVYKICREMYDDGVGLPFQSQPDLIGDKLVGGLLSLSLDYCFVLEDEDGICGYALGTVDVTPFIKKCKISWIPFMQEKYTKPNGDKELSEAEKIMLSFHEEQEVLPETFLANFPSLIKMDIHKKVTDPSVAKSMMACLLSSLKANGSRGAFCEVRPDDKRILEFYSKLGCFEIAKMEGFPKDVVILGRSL

Sequence of human HexB (P07686 122-311): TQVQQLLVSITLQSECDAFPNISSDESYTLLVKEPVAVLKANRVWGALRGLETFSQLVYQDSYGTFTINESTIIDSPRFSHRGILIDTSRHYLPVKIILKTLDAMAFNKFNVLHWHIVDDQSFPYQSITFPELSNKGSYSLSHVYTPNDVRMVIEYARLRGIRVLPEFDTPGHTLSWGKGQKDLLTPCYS
Sequence of human HexB (P07686 315-556): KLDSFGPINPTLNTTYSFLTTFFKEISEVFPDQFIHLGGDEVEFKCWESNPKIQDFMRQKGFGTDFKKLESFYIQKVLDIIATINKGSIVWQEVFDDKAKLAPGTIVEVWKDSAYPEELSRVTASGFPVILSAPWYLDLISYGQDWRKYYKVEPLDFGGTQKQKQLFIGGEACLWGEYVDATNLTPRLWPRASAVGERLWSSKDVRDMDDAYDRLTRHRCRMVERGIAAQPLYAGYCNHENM

CC(=O)N[C@H]1CN2CC[C@H](O)[C@@H]2[C@@H](O)[C@@H]1O [6-Ac-Cas]
Ki [1]: 0.25 µM
Ki [2]: 0.3 µM

Reference: paper PMC2954295 (Chemistry & Biology, 2010)
